This passage reports GI50 and TGI results from PubChem BioAssay (NCI).

Some test systems named below: OVCAR-5 ovarian; U251 CNS; SF-295 CNS; SN12C renal; HS 578T breast; HOP-92 NSCLC; MALME-3M melanoma; 786-0 renal; SK-OV-3 ovarian; SNB-75 CNS.
What all share (assay): inhibition of tumour cell growth, NCI panel, 48 h

SMILES strings stand for the structures. Values joined by “and” are separate entries in the source; they are usually repeats but may differ in a detail not shown here. Equal values may be shown once.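 Test compounds were applied to cells in 96-well plates for 48 hours at 5 doses. GI50 = concentration required for 50% inhibition of growth. TGI: total growth inhibition.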

Take `Cc1csc(Nc2nc(-c3cccc(Cl)c3)nc(C(Cl)(Cl)Cl)n2)n1`: the GI50 was 8.86 µM in the experiment with OVCAR-5 ovarian; 1.4 µM in the experiment with U251 CNS; 1.29 µM in the experiment with SF-295 CNS; 13.5 µM with SN12C renal; 1.79 µM in the experiment with HS 578T breast; 0.801 µM with HOP-92 NSCLC. The GI50 is more than 33.3 µM in the experiment with MALME-3M melanoma, 11 µM in the experiment on 786-0 renal and 8.69 µM in the experiment on SK-OV-3 ovarian. In addition, the TGI with OVCAR-5 ovarian is more than 33.3 µM; in the experiment with U251 CNS, 19.9 µM; with SF-295 CNS it was 9.89 µM; in the experiment on SN12C renal, more than 33.3 µM; in the experiment on HS 578T breast, 13.2 µM; in the experiment with HOP-92 NSCLC it was 3.21 µM. For the same molecule, the TGI in the experiment on MALME-3M melanoma, in the experiment on 786-0 renal and in the experiment with SK-OV-3 ovarian was more than 33.3 µM each time.

Turning to `COc1ccc(-n2nc(C)c3c2N(C)C2(C)C[C@@H]4C3(C)[C@@H]3CC4(C2)N(C)c2c(c(C)nn2-c2ccc(OC)cc2)[C@H]3C)cc1` (stereo not given in full), the GI50 with OVCAR-5 ovarian was more than 100 µM; in the experiment on U251 CNS, 3.94 µM; in the experiment with SN12C renal, 8.06 µM; with HS 578T breast it was 4.27 µM; in the experiment on MALME-3M melanoma, 6.34 µM; in the experiment on 786-0 renal, 5.47 µM. The GI50 in the experiment with SK-OV-3 ovarian was 2.53 µM. Further, the TGI was more than 100 µM in the experiment on OVCAR-5 ovarian; 22.5 µM with U251 CNS; more than 100 µM with SN12C renal; 98 µM in the experiment with HS 578T breast; more than 100 µM in the experiment on MALME-3M melanoma; 29.6 µM in the experiment on 786-0 renal. The TGI in the experiment on SK-OV-3 ovarian is 9.54 µM.

For `CC1(C)CC2(C)OC2C2(C1)N=NC(=Nc1ccccc1)O2` (stereo not given), the GI50 was 11.2 µM with OVCAR-5 ovarian; 13 µM in the experiment on U251 CNS; 13.3 µM in the experiment with SF-295 CNS; 2.48 µM with SN12C renal; 16.4 µM in the experiment with SNB-75 CNS; 17.3 µM in the experiment on HS 578T breast. The GI50 is 3.07 µM in the experiment on MALME-3M melanoma, 2.33 µM in the experiment with 786-0 renal and 28.5 µM in the experiment on SK-OV-3 ovarian. Besides, the TGI was determined as 26.2 µM in the experiment with OVCAR-5 ovarian; 26 µM in the experiment with U251 CNS; 29.1 µM in the experiment with SF-295 CNS; 8.33 µM with SN12C renal; 30.4 µM in the experiment on SNB-75 CNS; 71.7 µM in the experiment on HS 578T breast. Further, the TGI in the experiment on MALME-3M melanoma is 12.1 µM; with 786-0 renal, 5.63 µM; in the experiment on SK-OV-3 ovarian, more than 100 µM.

In the case of `COc1cc(OC)c(/C=C/S(=O)(=O)Cc2ccc(OC)c(NCC(=O)O)c2)c(OC)c1`, the GI50 in the experiment on OVCAR-5 ovarian is 0.347 µM and 0.47 µM; in the experiment with U251 CNS, 0.193 µM and 0.0477 µM; in the experiment on SF-295 CNS, 0.0687 µM and 0.0446 µM; in the experiment on SN12C renal, 0.207 µM and 0.251 µM; in the experiment with SNB-75 CNS, 0.0682 µM and 0.0492 µM; in the experiment with HS 578T breast, 0.103 µM and 0.0605 µM. The GI50 in the experiment on 786-0 renal is 0.177 µM and 0.144 µM; in the experiment on SK-OV-3 ovarian, 0.442 µM and 0.099 µM. Also, the TGI in the experiment with OVCAR-5 ovarian, with U251 CNS, in the experiment on SF-295 CNS, in the experiment with SN12C renal, in the experiment on SNB-75 CNS and in the experiment on HS 578T breast was more than 100 µM throughout. In addition, the TGI in the experiment on MALME-3M melanoma, in the experiment with 786-0 renal and with SK-OV-3 ovarian was more than 100 µM in each case.

Turning to `CCOc1cccnc1/C=N/NC(N)=S`, the GI50 with OVCAR-5 ovarian was 6.37 µM; in the experiment with U251 CNS, 2.9 µM; in the experiment on SF-295 CNS, 3.92 µM; in the experiment with SN12C renal it was 3.5 µM; in the experiment on SNB-75 CNS, 3.84 µM; in the experiment on HS 578T breast, 52.3 µM. The GI50 in the experiment on 786-0 renal is 3.66 µM; in the experiment on SK-OV-3 ovarian, 5.01 µM. The TGI with OVCAR-5 ovarian, in the experiment with U251 CNS, in the experiment with SF-295 CNS, with SN12C renal, with SNB-75 CNS and with HS 578T breast was more than 100 µM each time. The TGI in the experiment on 786-0 renal and in the experiment with SK-OV-3 ovarian was more than 100 µM throughout.

For the molecule `COc1cc(C(=O)N/N=C/c2cccc([N+](=O)[O-])c2)cc(OC)c1OC`, the GI50 with OVCAR-5 ovarian was 39.7 µM; with U251 CNS, 4.47 µM; in the experiment with SF-295 CNS, 2.75 µM; in the experiment on SN12C renal it was 78.9 µM; in the experiment with SNB-75 CNS, 6.92 µM; in the experiment on HS 578T breast, 2.02 µM. Besides, the GI50 is 2.75 µM with MALME-3M melanoma, 5.8 µM in the experiment on 786-0 renal and 31.9 µM in the experiment on SK-OV-3 ovarian. In addition, the TGI in the experiment on OVCAR-5 ovarian was more than 100 µM; in the experiment on U251 CNS, 26.1 µM; in the experiment on SF-295 CNS, 29.2 µM; with SN12C renal it was more than 100 µM; in the experiment with SNB-75 CNS it was 56.1 µM; in the experiment on HS 578T breast it was 8.6 µM. The TGI in the experiment with MALME-3M melanoma was 9.86 µM; in the experiment on 786-0 renal, more than 100 µM; with SK-OV-3 ovarian, more than 100 µM.

Consider `COC(=O)C1=C(O)C(C(=O)OC)[C@@]2(O)[C@@H](C(=O)OC)C(c3ccc(OC(=O)C(CC(C)C)NC(C)=O)cc3)C[C@@H]1[C@@H]2C(=O)OC` (stereo not given in full), for which the GI50 was 32.2 µM in the experiment with OVCAR-5 ovarian; 26.5 µM with U251 CNS; 74.8 µM in the experiment on SF-295 CNS; 30.2 µM with SN12C renal; 58.3 µM in the experiment with HS 578T breast; 39.5 µM with HOP-92 NSCLC. Moreover, the GI50 in the experiment on 786-0 renal was 46.2 µM. The TGI with OVCAR-5 ovarian was more than 100 µM; in the experiment on U251 CNS it was 76.4 µM; in the experiment with SF-295 CNS, more than 100 µM; with SN12C renal it was more than 100 µM; in the experiment on HS 578T breast, more than 100 µM; in the experiment on HOP-92 NSCLC, more than 100 µM. In the experiment with 786-0 renal, the TGI was more than 100 µM.

Regarding `COc1ncnc2c(-c3ccco3)cn(COCc3ccccc3)c12`, the GI50 was more than 50 µM with OVCAR-5 ovarian; 10.6 µM with U251 CNS; more than 50 µM with SF-295 CNS; more than 50 µM with SN12C renal; 12.7 µM with SNB-75 CNS; 18.6 µM in the experiment on HS 578T breast. Besides, the GI50 in the experiment on MALME-3M melanoma was more than 50 µM; with 786-0 renal it was 17.7 µM; in the experiment with SK-OV-3 ovarian, more than 50 µM. Moreover, the TGI with OVCAR-5 ovarian, with U251 CNS, with SF-295 CNS, with SN12C renal, in the experiment on SNB-75 CNS and in the experiment with HS 578T breast was more than 50 µM each time. Moreover, the TGI in the experiment with MALME-3M melanoma, with 786-0 renal and in the experiment on SK-OV-3 ovarian was more than 50 µM throughout.

`CC(C)n1nc(C#Cc2cccc(NC(=O)c3cccc(C(F)(F)F)c3)c2)c2c(N)ncnc21`: the GI50 in the experiment with OVCAR-5 ovarian was 1.36 µM; with U251 CNS it was 3.05 µM; in the experiment with SF-295 CNS, 2.88 µM; with SN12C renal it was 1.28 µM; in the experiment with SNB-75 CNS it was 1.75 µM; with HS 578T breast, 0.216 µM. Moreover, the GI50 was 0.203 µM with MALME-3M melanoma, 2.65 µM in the experiment on 786-0 renal and 1.98 µM with SK-OV-3 ovarian. Besides, the TGI is 27.7 µM with OVCAR-5 ovarian; 69.4 µM in the experiment with U251 CNS; more than 100 µM with SF-295 CNS; 8.17 µM with SN12C renal; 3.89 µM in the experiment with SNB-75 CNS; 1.88 µM with HS 578T breast. Besides, the TGI in the experiment with MALME-3M melanoma was found to be 4.41 µM; with 786-0 renal, 14.3 µM; in the experiment on SK-OV-3 ovarian, 4.55 µM.

Regarding `C[C@H](NC(=O)CCC(F)(F)F)C(=O)N[C@@H]1C(=O)N(CCO)c2ncccc2-c2ccccc21`, the GI50 with OVCAR-5 ovarian, in the experiment with U251 CNS, in the experiment on SF-295 CNS, with SN12C renal, with SNB-75 CNS and in the experiment with HS 578T breast was more than 100 µM in each case. Moreover, the GI50 with MALME-3M melanoma, in the experiment with 786-0 renal and with SK-OV-3 ovarian was more than 100 µM throughout. For the same molecule, the TGI in the experiment with OVCAR-5 ovarian, in the experiment with U251 CNS, in the experiment with SF-295 CNS, with SN12C renal, with SNB-75 CNS and in the experiment on HS 578T breast was more than 100 µM throughout. For the same molecule, the TGI in the experiment on MALME-3M melanoma, with 786-0 renal and in the experiment with SK-OV-3 ovarian was more than 100 µM throughout.

For `CN1CCN(C(=S)SCN2C(=O)c3ccccc3S2(=O)=O)CC1`, the GI50 is 30.2 µM with OVCAR-5 ovarian; 26.5 µM with U251 CNS; more than 100 µM in the experiment on SF-295 CNS; 52.5 µM in the experiment with SN12C renal; 24.5 µM in the experiment on SNB-75 CNS; 58.7 µM in the experiment on HS 578T breast. Besides, the GI50 was 23.1 µM with MALME-3M melanoma, 12 µM with 786-0 renal and more than 100 µM in the experiment with SK-OV-3 ovarian. Further, the TGI in the experiment on OVCAR-5 ovarian was more than 100 µM; in the experiment with U251 CNS, more than 100 µM; in the experiment on SF-295 CNS, more than 100 µM; in the experiment on SN12C renal, more than 100 µM; with SNB-75 CNS, 92.1 µM; in the experiment on HS 578T breast, more than 100 µM. The figures for the TGI in the experiment with MALME-3M melanoma, in the experiment on 786-0 renal and with SK-OV-3 ovarian were 95.8 µM, 43 µM and more than 100 µM, respectively.

For `CC[C@@]1(O)C(=O)OCc2c1cc1n(c2=O)Cc2cc3c(NC(C)=O)c(O)ccc3nc2-1`, the GI50 with OVCAR-5 ovarian was 4.19 µM; in the experiment with U251 CNS it was 0.252 µM; in the experiment on SF-295 CNS, 0.721 µM; in the experiment on SN12C renal, 0.456 µM; in the experiment on SNB-75 CNS, 0.744 µM; in the experiment on HOP-92 NSCLC, 7.76 µM. The GI50 in the experiment on MALME-3M melanoma was 4.83 µM; in the experiment on 786-0 renal, 0.373 µM; with SK-OV-3 ovarian, 1.4 µM. For the same molecule, the TGI in the experiment on OVCAR-5 ovarian was more than 100 µM; with U251 CNS it was 4.46 µM; with SF-295 CNS it was more than 32.1 µM; with SN12C renal it was more than 20.8 µM; with SNB-75 CNS, 7.31 µM; in the experiment on HOP-92 NSCLC, 51.9 µM. Besides, the TGI in the experiment with MALME-3M melanoma was 65.5 µM; with 786-0 renal, 2.17 µM; in the experiment with SK-OV-3 ovarian, 45.7 µM.
